According to ChEMBL document CHEMBL1142142, “Synergistic activities of azithromycin and amphotericin B against Naegleria fowleri in vitro and in a mouse model of primary amebic meningoencephalitis” (Antimicrob Agents Chemother, 2007):
Active and inactive are the calls of the source. The rule behind the calls is not given here.

Key:
Mus musculus [1] = test: Protection against Naegleria fowleri Lee (M67) infection in CD1 mouse at 2.5 mg/kg, ip in presence of azithromycin; assay type: functional; details: route intraperitoneal
Mus musculus [2] = test: Effect on mortality in Naegleria fowleri Lee (M67) infected CD1 mouse at 2.5 mg/kg/day, ip; assay type: functional; details: route intraperitoneal
Naegleria fowleri [3] = test: Antimicrobial activity against Naegleria fowleri Lee (M67) in presence of amphotericin B at 1:3 ratio on day 3; assay type: functional
Naegleria fowleri [4] = test: Antimicrobial activity against Naegleria fowleri Lee (M67) in presence of amphotericin B at 3:1 ratio on day 2; assay type: functional
Naegleria fowleri [5] = test: Antimicrobial activity against Naegleria fowleri Lee (M67) in presence of amphotericin B at 1:3 ratio on day 2; assay type: functional
Mus musculus [6] = test: Effect on mean time to death in Naegleria fowleri Lee (M67) infected CD1 mouse at 2.5 mg/kg/day, ip; assay type: functional; details: route intraperitoneal
Naegleria fowleri [7] = test: Antimicrobial activity against Naegleria fowleri Lee (M67) in presence of amphotericin B at 1:1 ratio on day 2; assay type: functional
Mus musculus [8] = test: Protection against Naegleria fowleri Lee (M67) infection in CD1 mouse at 2.5 mg/kg/day, ip; assay type: functional; details: route intraperitoneal
Naegleria fowleri [9] = test: Antimicrobial activity against Naegleria fowleri Lee (M67) in presence of amphotericin B at 1:1 ratio on day 3; assay type: functional
Naegleria fowleri [10] = test: Antimicrobial activity against Naegleria fowleri Lee (M67) at day 2; assay type: functional, organism-based; details: 48 h
Naegleria fowleri [11] = test: Antimicrobial activity against Naegleria fowleri Lee (M67) in presence of amphotericin B at 3:1 ratio on day 3; assay type: functional
Mus musculus [12] = test: Effect on mortality in Naegleria fowleri Lee (M67) infected CD1 mouse at 2.5 mg/kg, ip in presence of azithromycin; assay type: functional; details: route intraperitoneal
Naegleria fowleri [13] = test: Antimicrobial activity against Naegleria fowleri Lee (M67) at day 3; assay type: functional, organism-based; details: 72 h
Mus musculus [14] = test: Effect on mean time to death in Naegleria fowleri Lee (M67) infected CD1 mouse at 2.5 mg/kg, ip in presence of azithromycin; assay type: functional, organism-based; design: dose 2.5 mg/kg
Naegleria fowleri [15] = test: Antimicrobial activity against Naegleria fowleri Lee (M67) in presence of azithromycin at 3:1 ratio on day 2; assay type: functional
Naegleria fowleri [16] = test: Antimicrobial activity against Naegleria fowleri Lee (M67) in presence of azithromycin at 1:1 ratio on day 2; assay type: functional
Naegleria fowleri [17] = test: Antimicrobial activity against Naegleria fowleri Lee (M67) in presence of azithromycin at 1:3 ratio on day 3; assay type: functional
Naegleria fowleri [18] = test: Antimicrobial activity against Naegleria fowleri Lee (M67) in presence of azithromycin at 3:1 ratio on day 3; assay type: functional
Naegleria fowleri [19] = test: Antimicrobial activity against Naegleria fowleri Lee (M67) in presence of azithromycin at 1:1 ratio on day 3; assay type: functional
Mus musculus [20] = test: Effect on mortality in Naegleria fowleri Lee (M67) infected CD1 mouse at 25 mg/kg/day, ip; assay type: functional; details: route intraperitoneal
Mus musculus [21] = test: Protection against Naegleria fowleri Lee (M67) infection in CD1 mouse at 25 mg/kg/day, ip; assay type: functional; details: route intraperitoneal
Mus musculus [22] = test: Effect on mean time to death in Naegleria fowleri Lee (M67) infected CD1 mouse at 25 mg/kg/day, ip; assay type: functional; details: route intraperitoneal
Naegleria fowleri [23] = test: Antimicrobial activity against Naegleria fowleri Lee (M67) in presence of azithromycin at 1:3 ratio on day 2; assay type: functional

C[C@@H]1[C@H](O)[C@@H](C)/C=C/C=C/C=C/C=C/C=C/C=C/C=C/[C@H](O[C@@H]2O[C@H](C)[C@@H](O)[C@H](N)[C@@H]2O)C[C@@H]2O[C@](O)(C[C@@H](O)C[C@@H](O)[C@H](O)CC[C@@H](O)C[C@@H](O)CC(=O)O[C@H]1C)C[C@H](O)[C@H]2C(=O)O [AMPHOTERICIN B]
Activity (Mus musculus [1]): 100% | Activity (Mus musculus [2]): 55% | FIC50 (Naegleria fowleri [3]): 0.167 | FIC50 (Naegleria fowleri [4]): 0.254 | FIC50 (Naegleria fowleri [5]): 0.311 | Activity (Mus musculus [6]): 7 days | FIC50 (Naegleria fowleri [7]): 0.241 | Activity (Mus musculus [8]): 27% | FIC50 (Naegleria fowleri [9]): 0.309 | IC50 (Naegleria fowleri [10]): 26.4 nM | FIC50 (Naegleria fowleri [11]): 0.303 | Activity (Mus musculus [12]): 0% | IC50 (Naegleria fowleri [13]): 18.3 nM | Activity (Mus musculus [14]): Active

CC[C@H]1OC(=O)[C@H](C)[C@@H](O[C@H]2C[C@@](C)(OC)[C@@H](O)[C@H](C)O2)[C@H](C)[C@@H](O[C@@H]2O[C@H](C)C[C@H](N(C)C)[C@H]2O)[C@](C)(O)C[C@@H](C)CN(C)[C@H](C)[C@@H](O)[C@]1(C)O [AZITHROMYCIN]
FIC50 (Naegleria fowleri [15]): 0.088 | FIC50 (Naegleria fowleri [16]): 0.238 | FIC50 (Naegleria fowleri [17]): 0.55 | FIC50 (Naegleria fowleri [18]): 0.103 | FIC50 (Naegleria fowleri [19]): 0.308 | Activity (Mus musculus [20]): 45% | Activity (Mus musculus [21]): 40% | Activity (Mus musculus [22]): 12.4 days | IC50 (Naegleria fowleri [10]): 2.6 nM | IC50 (Naegleria fowleri [13]): 3.1 nM | FIC50 (Naegleria fowleri [23]): 0.464
